Reference: patent US20260034091A1, “Compositions and Methods for Treating Metabolic Disorders” (The Regents of the University of California, priority 2022, published 2026)

Test system: CDAHFD-induced late stage NAFLD/NASH in mice
Test: Benchmark study against Firsocostat and Fenofibrate in CDAHFD-induced late stage NAFLD/NASH
Assay type: in vivo, C57BL/6J male mice
Conditions: QD oral gavage four weeks; TOFA 250 mg/kg, Firsocostat 5 mg/kg, Fenofibrate 50 mg/kg
Procedure: Six-week-old C57BL/6J male mice were fed with a L-amino acid diet with 60 kcal % fat with 0.1% methionine and no added choline (CDAHFD; Research Diets A06071302i) for eight weeks. Mice were randomly assigned to treatment groups of either a vehicle (control), 250 mg/kg of TOFA, 5 mg/kg of Firsocostat (Gilead Sciences), 50 mg/kg of Fenofibrate, or a combined dose of 5 mg/kg Firsocostat and 50 mg/kg Fenofibrate. All treatments were delivered QD by oral gavage for an additional four weeks. Mice weights and food intake were monitored during the treatment time course. Upon study termination at 12 weeks, liver and serum samples were collected. Serum liver damage biomarkers, ALT and AST, were measured by commercially available kits (abcam 105134 and abcam 105135, respectively). Hepatic and serum triglyceride levels were measured from a commercially available kit (abcam65336). Total RNA was extracted from liver tissues (Qiagen RNeasy kit 74106), and cDNA was prepared (BioRAD iScript™ Reverse Transcription) according to manufacturer's protocols. Quantitative PCR (qPCR) was performed with fast SYBR Green Mix (ThermoFisher A25742) on the QuantStudio6 System (Applied Biosciences). Protein expression levels of liver samples were measured by western blot using antibodies against VLDLR (AF2258, 1:2000), CPT1A (CST12252, 1:1000) and Histone H3 (CST9715, 1:1000). Membranes were developed using a HRP secondary antibody (1:5000) and visualized using an enhanced chemiluminescent HRP substrate (Thermo34577). Additional liver samples were fixed in 4% paraformaldehyde and embedded in paraffin blocks for sectioning and subsequently stained with hematoxylin and eosin (H&E).

Compound: COc1ccccc1[C@H](Cn1c(=O)n(C(C)(C)C(=O)O)c(=O)c2c(C)c(-c3ncco3)sc21)OC1CCOCC1 [Firsocostat, reference compound]
- serum ALT: decreases
- serum AST: decreases
